In patent publication US8981112B2, “Inhibitors of β-secretase” (Boehringer Ingelheim International GmbH, priority 2012, dated 2015):

Legend:
[1] = In Vitro Phospholipidosis Assay (Assay 4), Nile red staining; assay type: cell-based; conditions: human, first effect concentration, U937 cells, read-out: Phospholipidosis FEC IC50 μM (assay 4)
Experimental: In Vitro Phospholipidosis Assay (Assay 4)
The phospholipidogenic potential of test compounds was assayed using the human hematopoetic U937 cell line. The test principle was to analyze the phospholipid content by staining the cells with the fluorescent dye Nile red.
U937 cells were seeded into cell culture plates at 0.5×10^6 cells/mL in RPMI medium containing 10% FBS, 1% DMSO, and 0.005% gentamicin. The cells were then cultivated with or without different concentrations of test compounds for 48 h under standard culture conditions.
For harvesting the cells were centrifuged at 130×g for 4 min and washed once with PBS. Then 2×0.5 mL cell suspension was prepared for non-fixed cell measurement (0.5 mL for propidium iodide (PI) viability measurement and 0.5 mL for Nile red measurement).
The remaining cells were fixed with 3.7% formaldehyde for 30 min. After a further centrifugation step cells were resuspended with 1.3 mL Nile red working solution (1 μg/mL) and incubated for 5 min at rt. The cell suspension was then washed twice with 3 mL PBS and centrifuged with 130×g for 4 min. The supernatant was discarded and the cells were resuspended with 0.5 mL PBS and kept for flow cytometry measurement. For Nile red staining of the 0.5 mL non-fixed cell samples, 50 μL of a ready to use Nile red solution (10 μg/mL) were added per sample. Samples were kept on ice for 5 min. Thereafter, they were washed once with 4 mL PBS (4° C., 250×g for 8 min) and finally resuspended in 400 μL PBS and kept for flow cytometry measurement.
For the viability measurement, 12.5 μL of the ready to use PI solution (10 μg/mL) were added to the 0.5 mL non-fixed cell suspension. After 15 min of incubation on ice, the samples were measured by flow cytometry using a Coulter Epics XL/MCL flow cytometer.
The viability of the cells of each sample was determined by flow cytometry measurement of the PI content at channel 2 (568-590 nm). Cut-off gates for the fluorescence-dependent differentiation between live and dead cells were defined based on the analysis of cell culture medium control samples.
Only samples with a cell viability of >=90% relative to control samples were analyzed for phospholipidosis. For that, each Nile red sample (non-fixed and fixed samples) was measured by flow cytometry at channel 1 (504-541 nm) and channel 4 (660-680 nm).
For each channel, relative Nile red fluorescence intensity of a test sample was calculated compared to control samples and expressed as percentage of control fluorescence intensity. The assessment of the phospholipidogenic potential and the first effect concentration (FEC) of a test compound was done manually based on the fluorescence intensities at both wavelengths for the fixed cells as well as for the non-fixed cells.

[2] = tested on: brain amyloid peptides Aβ1-x; test: Rat Brain Aβ Lowering Assay (Assay 5); assay type: in vivo; conditions: 3 hrs after dosing
Experimental: Rat Brain Aβ Lowering Assay (Assay 5)
The animals were sacrificed 3 hrs after dosing, and brains were excised, dissected into cerebellum and left and right cerebra and flash-frozen in liquid nitrogen.
The cerebrum was homogenized (5 volumes per weight) in 20 mM Tris-HCL, pH 8.5, 0.2% Triton-X100 supplemented with protease inhibitors (complete, Roche Applied Science) at 4° C. using a glass Dounce homogenizer. The homogenate was centrifuged at 120,000×g for 60 min at 4° C., and the supernatant was collected and analyzed for Ab1-x using immunoassay with chemiluminescent detection (Meso-Scale Discovery, Rockville, Md. (MSD)).
Streptavidin 96-well plates (MSD) were pre-blocked with 5% Blocker A solution (MSD) for 1 hr at rt on an orbital shaker and washed 4 times with phosphate buffered saline (PBS). The wells were pre-coated with 20 ng/well of biotinylated antibody SIG-39155 (Clone M3.2, specific for amino acids 10-15 of the rodent Aβ) for 1 hr at rt and washed 4 times with PBS. For Aβ1-x analysis, 25 μl of either the cleared brain lysates or Aβ1-40 standards (8-500 pg/ml, with 2× increment) were incubated for 1 hr at rt with constant shaking. The wells were washed 4 times with PBS, and 25 μl of the detection antibody (Sulfo-TAG labeled anti-Aβ40 antibody supplied by MSD) was added and incubated for 1 hr at rt. After 4 washes with PBS, 150 μl of the chemiluminescence detection reagent (Read Buffer T, MSD) was added, and the plate was read on an MSD Sector Imager 6000 instrument. The calibration curve was fit into a non-linear four-parameter regression model, and the Aβ1-x concentrations were calculated for each well containing the cleared brain lysates. The percent of Aβ lowering was calculated based on the difference with the average Aβ concentration obtained for the brains from the animals treated with vehicle alone.

[3] = tested on: production of Abeta1-x peptides in H4 neuroglioma cell line stably expressing human APP; test: H4-APPwt Cell-Based Assay (Assay 2), Abeta1-x production; conditions: H4 neuroglioma cells expressing human APP, Abeta1-x; read-out: H4-APPwt cell IC50 nM (assay 2)
Experimental: H4-APPwt Cell-Based Assay (Assay 2)
Cellular potency of the compounds of the invention was assessed in an assay monitoring production of Abeta1-x peptides in the H4 neuroglioma cell line (ATCC, Cat. #HTB-148) stably expressing human APP, using an immunoassay such as AlphaLISA (PerkinElmer, Cat.# AL288). Tested compounds were dissolved in DMSO and pre-diluted in the culture medium (DMEM containing 10% FBS and 1% penicillin/streptomycin) to achieve twice the final concentration of the compounds in the assay. Equal volumes of the 2× solutions of the tested compounds and cell suspension were added to a 96-well culture plate, so that each well contained ˜10,000 cells in a final volume of 200 μl. Final concentration of DMSO in the assay was 0.2%. The plates were incubated for 5 hrs at 37° C., 5% CO2 to allow cells to attach to the bottom of the wells in the presence of the tested compounds. Then the media was removed and replaced with fresh media containing tested compounds at the same final concentration. The plates were incubated for 18 hrs at 37° C., 5% CO2. Concentrations of Ab1-x were determined using AlphaLISA immunoassay (PerkinElmer, Cat.# AL288) following manufacturer's protocol. Concentrations of Abeta1-x in the wells containing either DMSO or 10 μM beta-secretase inhibitor (BACE inhibitor IV, EMD Bioscience, Cat. #565788) were used as uninhibited and background controls, correspondingly, for calculating percent inhibition values for each well with the tested compounds.

hERG = hERG (Homo sapiens (Human), UniProt Q12809); test: hERG-Channel Assay (Assay 3), whole-cell patch clamp; assay type: cell-based; conditions: human, HEK293 cells stably transfected with hERG, pH 7.4; 10 μM, HEK293 cells transfected with hERG
Chain of hERG (Q12809 whole entry): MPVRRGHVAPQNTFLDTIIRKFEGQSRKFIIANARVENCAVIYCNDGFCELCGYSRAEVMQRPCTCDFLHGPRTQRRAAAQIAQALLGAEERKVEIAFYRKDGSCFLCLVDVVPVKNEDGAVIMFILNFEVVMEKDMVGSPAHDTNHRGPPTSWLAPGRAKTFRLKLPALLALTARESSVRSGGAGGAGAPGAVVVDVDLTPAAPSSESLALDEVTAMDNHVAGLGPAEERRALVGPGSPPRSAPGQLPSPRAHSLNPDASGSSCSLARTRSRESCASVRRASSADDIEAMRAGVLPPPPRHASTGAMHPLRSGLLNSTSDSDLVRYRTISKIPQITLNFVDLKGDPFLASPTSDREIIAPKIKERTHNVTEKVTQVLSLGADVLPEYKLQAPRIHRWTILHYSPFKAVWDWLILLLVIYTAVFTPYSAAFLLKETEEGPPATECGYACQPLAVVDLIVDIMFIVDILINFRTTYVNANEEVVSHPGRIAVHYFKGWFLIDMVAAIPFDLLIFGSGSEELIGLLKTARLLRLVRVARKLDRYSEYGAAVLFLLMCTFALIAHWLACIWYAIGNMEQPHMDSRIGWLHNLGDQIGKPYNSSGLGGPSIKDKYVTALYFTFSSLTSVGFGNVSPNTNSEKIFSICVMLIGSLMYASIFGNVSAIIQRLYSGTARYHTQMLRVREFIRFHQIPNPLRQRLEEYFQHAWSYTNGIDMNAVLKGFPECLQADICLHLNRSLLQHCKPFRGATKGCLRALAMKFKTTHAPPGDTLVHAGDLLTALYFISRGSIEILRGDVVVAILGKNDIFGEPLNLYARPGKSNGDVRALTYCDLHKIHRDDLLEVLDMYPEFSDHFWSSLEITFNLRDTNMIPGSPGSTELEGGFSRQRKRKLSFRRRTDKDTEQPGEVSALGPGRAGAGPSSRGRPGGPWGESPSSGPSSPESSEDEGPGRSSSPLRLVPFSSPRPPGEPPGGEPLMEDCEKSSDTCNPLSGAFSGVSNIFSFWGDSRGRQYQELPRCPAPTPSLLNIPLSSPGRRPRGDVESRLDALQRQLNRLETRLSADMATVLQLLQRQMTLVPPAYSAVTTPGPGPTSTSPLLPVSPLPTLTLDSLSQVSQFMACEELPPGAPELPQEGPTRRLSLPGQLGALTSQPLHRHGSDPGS
Excerpt: hERG-Channel Assay (Assay 3)
HEK (human embryonic kidney) 293 cells were stably transfected with hERG cDNA.
Cells were superfused with a bath solution containing (mM): NaCl (137), KCl (4.0), MgCl2 (1.0), CaCl2 (1.8), Glucose (10), HEPES (10), pH 7.4 with NaOH. Patch pipettes were made from borosilicate glass tubing using a horizontal puller and filled with pipette solution containing (mM): K-aspartate (130), MgCl2 (5.0), EGTA (5.0), K2ATP (4.0), HEPES (10.0), pH 7.2 with KOH. Resistance of the microelectrodes was in the range between 2 and 5 MΩ.
Membrane currents were recorded using an EPC-10 patch clamp amplifier and PatchMaster software. hERG-mediated membrane currents were recorded at 35° C., using the whole-cell configuration of the patch-clamp technique. Transfected HEK293 cells were clamped at a holding potential of −60 mV and hERG-mediated inactivating tail currents were elicited using a pulse pattern with fixed amplitudes (activation/inactivation: 40 mV for 2000 ms; recovery: −120 mV for 2 ms; ramp to 40 mV in 2 ms; inactivating tail current: 40 mV for 50 ms) repeated at 15 s intervals. During each inter-pulse interval 4 pulses scaled down by a factor of 0.2 were recorded for a P/n leak subtraction procedure. Rs compensation was employed up to a level that safely allowed recording devoid of ringing.
The different concentrations of the test compound were applied sequentially on each of the different cells investigated. A steady state level of baseline current was measured for at least 6 sweeps prior to the application of the first test compound concentration.
The test compound was dissolved in DMSO to yield a master stock solution which was diluted further in DMSO to stock solutions needed for the lower concentrations. Final dilutions in extracellular buffer were prepared freshly from these stocks by a 1:1000 dilution step each before starting the experiments.
Peak current amplitudes were measured 3 ms after the ramp to +40 mV. For baseline and each concentration the peak currents of the three last sweeps before application of the next concentration were averaged. Residual currents (I/I0) were calculated for each cell as the fraction of actual average peak current and average baseline peak current. Results are presented as percent (%) inhibition (1−I/I0)*100% at 10 μM.

Structure (SMILES)	IC50 at 48 h [1] [µM]	% Aβ Reduction ([2]; single oral dose 50 mg/kg) [%]	IC50 [3] [nM]	inhibition at 10 µM (hERG) [%]	% Aβ Reduction ([2]; single oral dose 25 mg/kg) [%]	% Aβ Reduction ([2]; single oral dose 12.5 mg/kg) [%]
CO[C@H]1CC[C@@]2(Cc3ccc(C#N)cc3[C@]23N=C(N)N(Cc2ncccn2)C3=O)C[C@@H]1C [Example 6]	200	60	1.24	35		
CO[C@H]1[C@H](C)C[C@@]2(Cc3ccc(C#N)cc3[C@]23N=C(N)N(CC2(C)OCCO2)C3=O)C[C@@H]1C [Example 20]	> 400		0.28	8	73	
CC[C@@H]1C[C@]2(CC[C@H]1OC)Cc1ccc(C#N)cc1[C@]21N=C(N)N(C[C@H]2COCCO2)C1=O [Example 28]	400		0.5	9		30
CO[C@H]1[C@H](C)C[C@@]2(Cc3ccc(F)cc3[C@]23N=C(N)N(CC2(C)OCCO2)C3=O)C[C@@H]1C [Example 29]	200		0.3	7	78	
